The values below come from publication PMC7232244, “Aspartic Acid Isomerization Characterized by High Definition Mass Spectrometry Significantly Alters the Bioactivity of a Novel Toxin from Poecilotheria” (Toxins, 2020).

The format of the data set is physicochemical. To be noted: chromatographic, reversed-phase UPLC BEH C18, 0.10% formic acid/acetonitrile gradient; P. vittata venom (Figure 3A); taken as increased solubility / loss of hydrophobicity. The source says: We used an iterative series of analytical processes to identify potential peptide modulators for neuronal activity and subsequently identified their primary structure, including PTMs, that may alter their efficacy and potency. In the initial phase of toxin selection, venom from Poecilotheria were collected and screened by HDMS^E. The venom was a complex mixture of molecules with a high percentage of proteinaceous materials ranging from 3–6 kDa with an average venom yield from 50 collections (five from each of the ten species) of ~148 ± 12 μg of total protein per μL of venom as determined by conventional Bradford assay (data not shown). An analytical screening of each venom was performed for preliminary compound identification and any PTMs, e.g., isobaric conformations. 100 μg of lyophilized venom from each species of Poecilotheria were suspended in 1 mL of the initial mobile phase and a 1 μL aliquot injection was made into an UPLC coupled to a HDMS. […]
In order to calculate the molecular mass, we deconvoluted the charge envelope of each peptide using high-resolution mass spectrometry MS scans (“MS” in HDMS^E). […] The molecular monoisotopic masses of PcaTX-1a and PcaTX-1b were determined to be 4024.710 Da and 4024.709 Da, respectively (Figure 3B,C). […]

Numbered stars: 1 amine (or outer) side, 2 acyl side, 3 side chain; on linkers, the order of the positions; unused ones are H or OH. Bridge positions count the residues as written; N and C are the ends. Square brackets hold non-standard residues; d marks the D form. Peptide text beside a SMILES is read from it. βAsp = O=C(O)[C@H](CC(=O)[*:2])N[*:1]

Regarding `CC(C)C[C@@H]1NC(=O)[C@H](Cc2c[nH]cn2)NC(=O)[C@H](CCCCN)NC(=O)[C@@H]2CSSC[C@H](NC(=O)CNC(=O)[C@H](C)N)C(=O)N[C@@H](CCCCN)C(=O)N[C@@H](Cc3ccc(O)cc3)C(=O)N[C@@H](CC(C)C)C(=O)N[C@@H](Cc3ccccc3)C(=O)NCC(=O)N[C@@H](CO)C(=O)N[C@H]3CSSC[C@H](NC(=O)CNC1=O)C(=O)N[C@@H](CCCNC(=N)N)C(=O)N[C@@H](CCCNC(=N)N)C(=O)N[C@@H](CCCCN)C(=O)N[C@@H](C)C(=O)N1CCC[C@H]1C(=O)N[C@@H](CCC(N)=O)C(=O)N[C@@H](Cc1ccc(O)cc1)C(=O)N[C@H](C(=O)NCC(=O)N[C@@H](Cc1c[nH]c4ccccc14)C(=O)N[C@@H](CC(=O)NCC(=O)N[C@H](C(=O)N[C@@H](Cc1ccccc1)C(N)=O)[C@@H](C)O)C(=O)O)CSSC[C@H](NC(=O)[C@H](CC(=O)O)NC(=O)[C@H](CO)NC(=O)[C@H](CC(=O)O)NC(=O)[C@H](CCC(=O)O)NC(=O)[C@H](CCCCN)NC3=O)C(=O)N2` [PcaTX-1a] (H-AGCKYLFGSCKEDSDCCKHLGCRRKAPQYCGW[βAsp]GTF-NH2; disulfide 3-17, 10-22, 16-30), the “decrease of partition coefficient (k') as compared to PcaTX-1b” value came to 9.3%.
